# Test results as given in patent US20060014219A1 (priority 2002, published 2006).
# Like-named read-outs stand apart in the source and are kept apart here.
# What was measured:
# [1] = test system: tobacco budworm GABA-gated chloride channel; assay type: cell-based; settings: for Fluorescence: then GABA, HEK a-3 cells, average of three tests
# Experimental: The following solutions were prepared prior to or on the same day the experiment was to be carried out: • Solution A: To about one liter of deionized water was added 8.0 grams of sodium chloride, 0.395 gram of potassium chloride, 0.294 gram of calcium chloride, 0.203 gram of magnesium chloride, 4.5 grams of glucose, and 2.38 grams of [4-(2-hydroxyethyl)-1-piperazineethanesulfonic acid (“HEPES”) (all available from Aldrich Chemical Company, Milwaukee, Wis.). The resulting solution was stirred until dissolution was complete and then the pH adjusted to 7.3 to 7.4 with an aqueous 1 M sodium hydroxide solution. • Solution B: To one vile of the dye (“FLIPR® Membrane Potential Assay Reagent, Component A”) contained in the FLIPR® Membrane Potential Assay Kit was added about 10 ml of Solution A. The resulting mixture was mixed by repeated pippetting until the content of the vile was completely dissolved and used immediately or stored at […] for future use.
# The following solution was prepared on the same day the experiment was to be carried out: • Solution C: To solution B was added about 90 mL of Solution A. The resulting mixture was mixed until dissolution was complete. • Solution D: GABA (available from Sigma Chemical Co., St. Louis, Mo.), […], was taken up in 30 ml of Solution A. The resulting solution was mixed until dissolution was completion, yielding a […] GABA solution. • Solution E: To 1.2 ml of Solution D was added 38.8 ml of Solution A. The resulting mixture was mixed by repeated pippetting until dissolution was complete, yielding a 300 μM GABA solution.
# On the same day the experiment is to be carried, Solutions A-E are prepared again in the manner described above.
# (§1) One day before of the experiment, HEK a-3 cells were seeded into two wells of a poly-D-lysine coated blackwall 96 well microplate with clear bottom at a cell density of about 100,000 cells per well. Upon completion of addition, the cells were incubated at 37° C. in a cell culture incubator for twenty-four hours, for use below.
# In carrying out the first step, on the day of the experiment, the 96 well microplate containing the HEK a-3 cells was removed from the incubator and 100 μl of Solution C was added to the two wells of the 96 well microplate. Upon completion of addition, the microplate was allowed to stand at ambient temperature of 3.5 to 4 hours. After this time, the microplate was placed onto the FLIPR^384® Fluorometric Imaging Plate Reader system in which the laser intensity was set at a suitable level to obtain a basal value of approximately 10,000 fluorescence units, fluorescent readings were obtained every one second for the first minute and then every six seconds thereafter, and fluorescence measurements were captured by a cooled CCD camera. After ten seconds from the start of the fluorescence measurements, 25 μl of Solution E was added at a rate of 25 μl/second by the system to one of the two wells of the 96 well microplate. Upon completion of addition, the level of fluorescence of the HEK a-3 cells was determined using the FLIPR^384® Fluorometric Imaging Plate Reader system.
# as §1, with “each well” for “two wells”, “bottom (available from Becton, Dickinson and Company, Franklin Lakes, N.J.)” for “bottom”
# In carrying out the first step, on the day of the experiment, the 96 well microplate containing the HEK a-3 cells was removed from the incubator and 100 μl of Solution C were added to each well of the 96 well microplate. Upon completion of addition, the microplate was stored at ambient temperature for 3.5 to 4 hours. […]
# [2] = test system: tobacco budworm GABA-gated chloride channel; assay: Fluorescence in HEK a-3 cells by the standard protocol of the FLIPR Membrane Potential Assay Kit; assay type: cell-based; settings: 25 μl of 300 μM GABA solution; dye incubated at 37° C. for 0.5 to one hour; FIG. 1
# Experimental: This example illustrates the measurement of fluorescence in HEK a-3 cells in the manner described in the protocol for the FLIPR® Membrane Potential Assay Kit.
# The following solutions were prepared prior to or on the same day the experiment was to be carried out: • Solution A: To about one liter of deionized water was added 8.0 grams of sodium chloride, 0.395 gram of potassium chloride, 0.294 gram of calcium chloride, 0.203 gram of magnesium chloride, 4.5 grams of glucose, and 2.38 grams of [4-(2-hydroxyethyl)-1-piperazineethanesulfonic acid (“HEPES”) (all available from Aldrich Chemical Company, Milwaukee, Wis.). […]
# In carrying out the first step, on the day of the experiment, the 96 well microplate containing the HEK a-3 cells was removed from the incubator and 100 μl of Solution C was added to the two wells of the 96 well microplate. […] After this time, the microplate was placed onto the FLIPR^384® Fluorometric Imaging Plate Reader system in which the laser intensity was set at a suitable level to obtain a basal value of approximately 10,000 fluorescence units, fluorescent readings were obtained every one second for the first minute and then every six seconds thereafter, and fluorescence measurements were captured by a cooled CCD camera. […]
# [3] = 10 μM compound, [1 − (fluorescence of test compound/fluorescence of control)] × 100
# [4] = 0.003 μM compound, relative to DMSO control
# [5] = 0.01 μM compound, relative to DMSO control
# [6] = 0.03 μM compound, relative to DMSO control
# [7] = 0.1 μM compound, relative to DMSO control
# [8] = 0.3 μM compound, relative to DMSO control
# [9] = 1 μM compound, relative to DMSO control
# [10] = 3 μM compound, relative to DMSO control
SMILES,Fluorescence ([1]; 10 μM compound),"% Inhibition [1, 3] [%]",Fluorescence ([1]; 0.003 μM compound),"% Inhibition [1, 4] [%]",Fluorescence ([1]; 0.01 μM compound),"% Inhibition [1, 5] [%]",Fluorescence ([1]; 0.03 μM compound),"% Inhibition [1, 6] [%]",Fluorescence ([1]; 0.1 μM compound),"% Inhibition [1, 7] [%]",Fluorescence ([1]; 0.3 μM compound),"% Inhibition [1, 8] [%]",Fluorescence ([1]; 1 μM compound),"% Inhibition [1, 9] [%]",Fluorescence ([1]; 3 μM compound),"% Inhibition [1, 10] [%]",change in fluorescence after addition of GABA [2],"change in fluorescence after addition of GABA ([1]; 25 μl of 300 μM GABA solution, dye at ambient temperature 3.5 to 4 hours, FIG. 2)"
"CN1CCc2cc3c(cc2[C@H]1[C@@H]1OC(=O)c2c1ccc1c2OCO1)OCO3 [Bicuculine, bicuculine]",11543,5,–,–,–,–,–,–,–,–,–,–,–,–,–,–,–,–
"ClC1=C(Cl)[C@]2(Cl)[C@@H]3[C@@H]4C[C@@H]([C@H]5O[C@@H]45)[C@@H]3[C@@]1(Cl)C2(Cl)Cl [Dieldrin, dieldrin]",67,100,13284,−1,12339,5,11492,12,9924,34,7279,44,4184,68,900,93,–,–
"O=S1OCC2C(CO1)C1(Cl)C(Cl)=C(Cl)C2(Cl)C1(Cl)Cl (stereo not drawn) [Endosulfan, endosulfan]",993,93,14343,−3,15198,−9,11074,20,7098,48,4426,68,1903,86,1615,88,–,–
"N#Cc1nn(-c2c(Cl)cc(C(F)(F)F)cc2Cl)c(N)c1[S+]([O-])C(F)(F)F (stereo not drawn) [Fipronil, fipronil]",628,95,11275,10,8328,43,6441,48,4469,64,2990,76,1790,86,1031,92,–,–
"NCCCC(=O)O [GABA, Gamma amino-n-butyric acid]",–,–,–,–,–,–,–,–,–,–,–,–,–,–,–,–,no change in fluorescence was observed,an increase in fluorescence
CCCC(C)C1(CC)C(=O)NC(=O)NC1=O (stereo not drawn) [Pentabarbitol],11575,5,–,–,–,–,–,–,–,–,–,–,–,–,–,–,–,–
